The source of these data is patent publication US9549560B2, “Pesticidal compositions and related methods” (DOW AGROSCIENCES LLC, priority 2013, dated 2017).

One may read the mortality as the percentage killed.

In assay [1] the test system is Green Peach Aphid (Myzus persicae). Description: Bioassay for Green Peach Aphid (GPA) (MYZUPE), foliar spray on cabbage seedlings. The assay is classed as in vivo. The settings on record: 72 h, 200 ppm foliar spray, graded after three days, Abbott corrected % control, read-out: % Control (or Mortality) rating, GPA. As to the method: Cabbage seedlings grown in 3-inch pots, with 2-3 small (3-5 cm) true leaves, were used as test substrate. The seedlings were infested with 20-50 GPA (wingless adult and nymph stages) one day prior to chemical application. Four pots with individual seedlings were used for each treatment. Test compounds (2 mg) were dissolved in 2 mL of acetone/methanol (1:1) solvent, forming stock solutions of 1000 ppm test compound. The stock solutions were diluted 5× with 0.025% Tween 20 in H2O to obtain the solution at 200 ppm test compound. A hand-held aspirator-type sprayer was used for spraying a solution to both sides of […] leaves until runoff. Reference plants (solvent check) were sprayed with the diluent only containing 20% by volume of acetone/methanol (1:1) solvent. Treated plants were held in a holding room for three days at approximately 25° C. and ambient relative humidity (RH) prior to grading. Evaluation was conducted by counting the number of live aphids per plant under a microscope. Percent control was measured by using Abbott's correction formula (W. S. Abbott, “A Method of Computing the Effectiveness of an Insecticide,” J. Econ. Entomol. 18 (1925), pp. 265-267) as follows. Corrected % Control=100*(X−Y)/X
X=No. of live aphids on solvent check plants and
Y=No. of live aphids on treated plants
(§1) Biological Data for Green Peach Aphid (GPA) (MYZUPE) and Sweetpotato Whitefly-crawler (WF) (BEMITA)” (See Table Section).

In assay [2] the test system is Sweetpotato Whitefly-Crawler (Bemisia tabaci). Nature of the assay: Insecticidal test for Sweetpotato Whitefly-Crawler (WF) (BEMITA) in foliar spray assay on cotton plants. The class given is in vivo. The note with it: 216 h, 200 ppm foliar spray, graded after 9 days, Abbott corrected % control, read-out: % Control (or Mortality) rating, WF. As to the method: Cotton plants (Gossypium hirsutum) grown in 3-inch pots, with 1 small (4-5 cm) true leaves, were used as test substrate. The plants were infested with 200-400 whitefly eggs 4-5 days prior to chemical application. Four pots with individual plants were used for each treatment. Test compounds (2 mg) were dissolved in 1 mL of acetone solvent, forming stock solutions of 2000 ppm test compound. The stock solutions were diluted 10× with 0.025% Tween 20 in H2O (diluents) to obtain the solution at 200 ppm test compound. A hand-held aspirator-type sprayer was used for spraying a solution to both sides of cotton leaves until runoff. Reference plants (solvent check) were sprayed with the diluent only containing 10% by volume of acetone solvent. Treated plants were held in a holding room for 9 days at approximately 25° C. and ambient relative humidity (RH) prior to grading. Evaluation was conducted by counting the number of live 3-4 nymph stage per plant under a microscope. Percent control was measured by using Abbott's correction formula (W. S. Abbott, “A Method of Computing the Effectiveness of an Insecticide,” J. Econ. Entomol. 18 (1925), pp. 265-267) as follows. Corrected % Control=100*(X−Y)/X
X=No. of live nymphs on solvent check plants and
Y=No. of live nymphs on treated plants.
as §1

For the compound `CCN(C(=O)C(C)CSCCC(F)(F)F)c1cn(-c2ccc[n+]([O-])c2)nc1C` (stereo not drawn) [FA1, 3-(4-(N-Ethyl-2-methyl-3-((3,3,3-trilluoropropyl)thio)propanamido)-3-methyl-1H-pyrazol-1-yl)pyridine 1-oxide], the mortality at 200 ppm in assay [1] and in assay [2] was 80 to 100% in each case.
With `CCN(C(=O)C(C)CSCCC(F)(F)F)c1cn(-c2cc(F)c[n+]([O-])c2)nc1Cl` (stereo not drawn) [FA2, 3-(3-Chloro-4-(N-ethyl-2-methyl-3-((3,3,3-trifluoropropyl)thio)propanamido)-1H-pyrazol-1-yl)-5-fluoropyridine 1-oxide], the mortality at 200 ppm in assay [1] and in assay [2] was 80 to 100% throughout.
On to `CCN(C(=O)C(C)CSCCC(F)(F)F)c1cn(-c2ccc[n+]([O-])c2)nc1Cl` (stereo not drawn) [FA3, 3-(3-Chloro-4-(N-ethyl-2-methyl-3-((3,3,3-trifluoropropyl)thio)propanamido)-1H-pyrazol-1-yl)pyridine 1-oxide], for which the mortality at 200 ppm in assay [1] and in assay [2] was 80 to 100% each time.
As to `C#CCN(C(=O)C(C)CSCCC(F)(F)F)c1cn(-c2ccc[n+]([O-])c2)nc1Cl` (stereo not drawn) [FA4, 3-(3-Chloro-4-(2-methyl-N-(prop-2-yn-1-yl)-3-((3,3,3trifluoropropyl)thio)propanamido)-1H-pyrazol-1-yl)pyridine 1-oxide], the mortality at 200 ppm in assay [1] and in assay [2] was 80 to 100% in each case.
As for `CC(CSCCC(F)(F)F)C(=O)N(C)c1cn(-c2ccc[n+]([O-])c2)nc1Cl` (stereo not drawn) [FA5, 3-(3-Chloro-4-(N,2-dimethyl-3-((3,3,3-trifluoropropyl)thio)propanamido)-1H-pyrazol-1-yl)pyridine 1-oxide], the mortality at 200 ppm in assay [1] and in assay [2] was 80 to 100% in each case.
Consider `CCN(C(=O)C(C)C[S+]([O-])CCC(F)(F)F)c1cn(-c2cc(F)c[n+]([O-])c2)nc1Cl` (stereo not drawn) [FA6, 3-(3-Chloro-4-(N-ethyl-2-methyl-3-((3,3,3-trifluoropropyl)sulfinyl)propanamido)-1H-pyrazol-1-yl)-5-fluoropyridine 1-oxide], for which the mortality at 200 ppm in assay [1] and in assay [2] was 80 to 100% in each case.
For the compound `C#CCN(C(=O)C(C)C[S+]([O-])CCC(F)(F)F)c1cn(-c2ccc[n+]([O-])c2)nc1Cl` (stereo not drawn) [FA7, 3-(3-Chloro-4-(2-methyl-N-(prop-2-yn-1-yl)-3-((3,3,3-trifluoropropyl)sulfinyl)propanamido)-1H-pyrazol-1-yl)pyridine 1-oxide], the mortality at 200 ppm in assay [1] and in assay [2] was 80 to 100% throughout.
For `CC(C[S+]([O-])CCC(F)(F)F)C(=O)N(C)c1cn(-c2ccc[n+]([O-])c2)nc1Cl` (stereo not drawn) [FA8, 3-(3-Chloro-4-(N,2-dimethyl-3-((3,3,3-trifluoropropyl)sulfinyl)propanamido)-1H-pyrazol-1-yl)pyridine 1-oxide], the mortality at 200 ppm in assay [1] and in assay [2] was 80 to 100% throughout.
With `CCN(C(=O)C(C)C[S+]([O-])CCC(F)(F)F)c1cn(-c2ccc[n+]([O-])c2)nc1Cl` (stereo not drawn) [FA9, 3-(3-Chloro-4-(N-ethyl-2-methyl-3-((3,3,3-trifluoropropyl)sulfinyl)propanamido)-1H-pyrazol-1-yl)pyridine 1-oxide], the mortality at 200 ppm in assay [1] and in assay [2] was 80 to 100% throughout.
For the compound `CCN(C(=O)C(C)C[S+]([O-])CCC(F)(F)F)c1cn(-c2ccc[n+]([O-])c2)nc1C` (stereo not drawn) [FA10, 3-(4-(N-Ethyl-2-methyl-3-((3,3,3-trifluoropropyl)sulfinyl)propanamido)-3-methyl-1H-pyrazol-1-yl)pyridine 1-oxide], the mortality at 200 ppm lay in the range of 80 to 100% in assay [1] and 0 to 80% in assay [2].
Consider `CCN(C(=O)CS(C)(=O)=O)c1cn(-c2ccc[n+]([O-])c2)nc1Cl` [FA11, 3-(3-chloro-4-(N-ethyl-2-(methylsulfonyl)acetamido)-1H-pyrazol-1-yl)pyridine 1-oxide], for which the mortality at 200 ppm was 80 to 100% in assay [1] and 0 to 80% in assay [2].
Take `CC(C(=O)N(C)c1cn(-c2ccc[n+]([O-])c2)nc1Cl)S(C)(=O)=O` (stereo not drawn) [FA12, 3-(3-chloro-4-(N-methyl-2-(methylsulfonyl)propanamido)-1H-pyrazol-1-yl)pyridine 1-oxide]: the mortality at 200 ppm in assay [1] and in assay [2] was 80 to 100% in each case.
